One experiment addresses T1, hA1AR (Homo sapiens, UniProt P30542).
T1 sequence (P30542 1-326): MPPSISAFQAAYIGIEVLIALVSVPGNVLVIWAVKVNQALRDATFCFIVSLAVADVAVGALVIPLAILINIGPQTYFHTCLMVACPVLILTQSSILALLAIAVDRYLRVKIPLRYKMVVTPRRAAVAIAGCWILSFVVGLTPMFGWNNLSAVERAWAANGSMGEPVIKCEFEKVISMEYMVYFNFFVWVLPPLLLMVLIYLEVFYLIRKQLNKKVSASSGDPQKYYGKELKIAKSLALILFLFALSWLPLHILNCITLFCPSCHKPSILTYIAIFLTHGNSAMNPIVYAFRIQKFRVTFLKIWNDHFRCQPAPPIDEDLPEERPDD
The experiment is described as follows: Radioligand binding at hA1AR.

In experiment [1] the target is T2, hA3AR (Homo sapiens, UniProt P0DMS8).
T2 sequence (P0DMS8 1-318): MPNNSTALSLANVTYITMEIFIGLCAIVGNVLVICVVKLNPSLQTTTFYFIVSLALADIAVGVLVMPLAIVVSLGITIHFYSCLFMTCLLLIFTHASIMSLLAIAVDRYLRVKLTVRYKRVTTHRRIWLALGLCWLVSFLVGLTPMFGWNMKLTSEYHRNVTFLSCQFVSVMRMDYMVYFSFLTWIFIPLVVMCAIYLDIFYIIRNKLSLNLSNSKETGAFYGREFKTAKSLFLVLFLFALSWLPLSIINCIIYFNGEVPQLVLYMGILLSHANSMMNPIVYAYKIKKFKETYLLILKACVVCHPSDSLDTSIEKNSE
The experiment is described as follows: Radioligand binding at hA3AR.

In the next experiment the target is T3, mA3AR (Mus musculus, UniProt Q61618).
T3 sequence (Q61618 1-319): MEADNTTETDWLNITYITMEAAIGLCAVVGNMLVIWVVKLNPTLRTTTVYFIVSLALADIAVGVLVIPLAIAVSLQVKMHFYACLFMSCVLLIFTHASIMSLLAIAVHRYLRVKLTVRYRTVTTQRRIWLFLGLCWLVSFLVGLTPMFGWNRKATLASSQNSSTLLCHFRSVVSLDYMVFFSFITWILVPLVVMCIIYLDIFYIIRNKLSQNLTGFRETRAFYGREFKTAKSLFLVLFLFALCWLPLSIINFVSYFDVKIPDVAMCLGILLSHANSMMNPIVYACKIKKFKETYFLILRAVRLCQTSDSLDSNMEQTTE
As to conditions: read-out: Affinity (Ki) mA3; ref Melman et al.[21]; cited from earlier work.

A further experiment deals with T4, mA1AR (Mus musculus, UniProt Q60612).
T4 sequence (Q60612 1-326): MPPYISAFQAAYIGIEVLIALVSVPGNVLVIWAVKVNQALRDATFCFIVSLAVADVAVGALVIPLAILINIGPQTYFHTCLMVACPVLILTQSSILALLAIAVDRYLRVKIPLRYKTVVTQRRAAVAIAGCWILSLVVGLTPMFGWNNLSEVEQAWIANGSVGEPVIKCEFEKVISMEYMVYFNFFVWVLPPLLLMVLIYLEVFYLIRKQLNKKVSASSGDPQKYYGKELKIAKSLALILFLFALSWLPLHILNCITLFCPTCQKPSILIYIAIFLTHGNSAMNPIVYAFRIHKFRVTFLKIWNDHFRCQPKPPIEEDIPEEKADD
As to conditions: read-out: Affinity (Ki) mA1; ref Melman et al.[21]; cited from earlier work.

The target of a further experiment is mA2AAR (Mus musculus, UniProt Q60613). The settings on record: read-out: Affinity (Ki) mA2A; ref Melman et al.[21]; cited from earlier work.
Experiment [2] concerns the target T2, hA3AR. Type of experiment: cell-based. As to conditions: at 10 μM.
For the next experiment, the target named is hA2AAR (Homo sapiens, UniProt P29274). In words: Radioligand binding at hA2AAR.
hA2AAR, sequence (P29274 whole entry): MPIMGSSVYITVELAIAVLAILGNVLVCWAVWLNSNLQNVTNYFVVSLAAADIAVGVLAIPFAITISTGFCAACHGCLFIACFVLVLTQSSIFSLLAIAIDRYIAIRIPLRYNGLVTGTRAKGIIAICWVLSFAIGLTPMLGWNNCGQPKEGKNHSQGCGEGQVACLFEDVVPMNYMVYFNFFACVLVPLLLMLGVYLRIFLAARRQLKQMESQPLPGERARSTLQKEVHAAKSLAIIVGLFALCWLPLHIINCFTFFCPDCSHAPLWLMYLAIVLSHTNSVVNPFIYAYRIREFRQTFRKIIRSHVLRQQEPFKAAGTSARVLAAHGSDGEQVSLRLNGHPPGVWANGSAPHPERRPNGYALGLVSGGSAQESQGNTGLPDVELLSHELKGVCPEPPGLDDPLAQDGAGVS

mA2AAR, sequence (Q60613 whole entry): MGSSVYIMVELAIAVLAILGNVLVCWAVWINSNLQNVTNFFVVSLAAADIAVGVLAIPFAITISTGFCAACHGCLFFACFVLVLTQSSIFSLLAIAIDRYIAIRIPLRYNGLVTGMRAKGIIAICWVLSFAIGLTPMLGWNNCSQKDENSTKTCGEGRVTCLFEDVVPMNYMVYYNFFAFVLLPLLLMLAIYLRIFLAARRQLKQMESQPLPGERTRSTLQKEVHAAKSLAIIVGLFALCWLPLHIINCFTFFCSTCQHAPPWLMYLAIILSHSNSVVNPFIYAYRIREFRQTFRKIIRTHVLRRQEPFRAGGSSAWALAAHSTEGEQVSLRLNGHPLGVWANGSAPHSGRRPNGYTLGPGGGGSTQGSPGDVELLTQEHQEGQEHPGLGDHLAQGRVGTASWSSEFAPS

For the molecule `CNC(=O)[C@@]12C[C@@H]1[C@@H](n1cnc3c(NCc4cccc(Cl)c4)nc(C#Cc4ccccc4)nc31)[C@H](O)[C@@H]2O` [Compound 27, (1S,2R,3S,4R,5S)-4-(6-(3-Chlorobenzylamino)-2-(phenylethynyl)-9H-purin-9-yl)-2,3-dihydroxy-N-methylbicyclo[3.1.0]hexane-1-carboxamide], the Ki (in general, the equilibrium dissociation constant of an inhibitor or competing ligand from its target) at hA1AR was over 10000 nM.
In the case of `CNC(=O)[C@@]12C[C@@H]1[C@@H](n1cnc3c(NC)nc(C#Cc4ccc(C(C)(C)C)cc4)nc31)[C@H](O)[C@@H]2O` [Compound 22, (1S,2R,3S,4R,5S)-4-(2-((4-tert-Butylphenyl)ethynyl)-6-(methylamino)-9H-purin-9-yl)-2,3-dihydroxy-N-methylbicyclo[3.1.0]hexane-1-carboxamide], on hA3AR [1], the “reduction of A3AR binding affinity compared to the H analogue 9” value turned out to be 12 fold.
Regarding `CNC(=O)[C@@]12C[C@@H]1[C@@H](n1cnc3c(NC)nc(C#Cc4ccc(F)cc4)nc31)[C@H](O)[C@@H]2O` [Compound 13, (1S,2R,3S,4R,5S)-4-(2-((4-Fluorophenyl)ethynyl)-6-(methylamino)-9H-purin-9-yl)-2,3-dihydroxy-N-methylbicyclo[3.1.0]hexane-1-carboxamide], on hA3AR [1] (Affinity (Ki) hA3, [125I]I-AB-MECA, CHO cells, n = 3–5), the Ki is about 0.6 nM.
Regarding `CNC(=O)[C@@]12C[C@@H]1[C@@H](n1cnc3c(NCc4cccc(I)c4)nc(Cl)nc31)[C@H](O)[C@@H]2O` [Compound 4], the Ki is 0.8 ± 0.14 nM on mA3AR, 7.32 ± 1.5 nM on mA1AR and 5350 nM on mA2AAR.
As to `CNC(=O)[C@@]12C[C@@H]1[C@@H](n1cnc3c(NCc4cccc(Cl)c4)nc(C#Cc4ccc(F)c(F)c4)nc31)[C@H](O)[C@@H]2O` [Compound 31, (1S,2R,3S,4R,5S)-4-(6-(3-Chlorobenzylamino)-2-((3,4-difluorophenyl)ethynyl)-9H-purin-9-yl)-2,3-dihydroxy-N-methylbicyclo[3.1.0]hexane-1-carboxamide], the “agonist type at the A3AR” value at hA3AR [2] is on record as “full agonist”.
On to `CNC(=O)[C@@]12C[C@@H]1[C@@H](n1cnc3c(NC)nc(C#Cc4ccccc4)nc31)[C@H](O)[C@@H]2O` [Compound 9, (1S,2R,3S,4R,5S)-2,3-Dihydroxy-N-methyl-4-(6-(methylamino)-2-(phenylethynyl)-9H-purin-9-yl)bicyclo[3.1.0]hexane-1-carboxamide], for which the inhibition (in general, the share of the control response that was lost under treatment) at 10 µM at hA1AR (read-out: % inhibition of radioligand binding hA1, at 10 μM, n = 3) was under 20%; at hA2AAR (read-out: % inhibition of radioligand binding hA2A, at 10 μM, n = 3), under 20%.
`CNC(=O)[C@@]12C[C@@H]1[C@@H](n1cnc3c(NCc4cccc(Cl)c4)nc(C#Cc4ccc(-c5ccccc5)cc4)nc31)[C@H](O)[C@@H]2O` [Compound 34, (1S,2R,3S,4R,5S)-4-(2-(Biphenyl-4-ylethynyl)-6-(3-chlorobenzylamino)-9H-purin-9-yl)-2,3-dihydroxy-N-methylbicyclo[3.1.0]hexane-1-carboxamide]: the “activity at A1” value on hA1AR was “inactive”. Also, at hA2AAR, the “activity at A2A” value is “inactive”.

These data come from paper PMC3371665 (Journal of Medicinal Chemistry, 2012).
